In US11850266B2, “Cardiomyocytes and compositions and methods for producing the same” (President and Fellows of Harvard College, priority 2019, dated 2023):

Columns and labels:
[1] = system: iPSC-derived cardiomyocytes; test: Seahorse Mito Stress Test and Glycolysis Stress Test; format: cell-based, human
Method: The Seahorse XFe96 Analyzer (Agilent) was used to assess metabolic activity of differentiated cardiomyocytes. Seahorse XFe96 cell culture microplates were coated with Geltrex (1:100 dilution in DMEM:F12). Cardiomyocytes were differentiated as described above then treated with DMSO or Torin1 (200 nM) starting at approximately two days after onset of beating for one week (˜days 9-16 of differentiation for most batches). After treatment, all cells were changed back into RPMI/B27/insulin media until assay preparation (performed at or before day 35 of differentiation). One day prior to assay, cardiomyocytes were dissociated with 0.1% trypsin-EDTA for 5 minutes then neutralized with RPMI/B27/insulin+10% fetal bovine serum (FBS) and plated at a density of 20,000-30,000 cells per well. Cardiomyocytes were maintained in serum-containing medium overnight to facilitate cell adhesion. One hour prior to the assay, the plates were changed to Seahorse assay media (XF Base Medium supplemented with 25 mM glucose, 1 mM sodium pyruvate, and 1 mM GlutaMAX), then incubated at 37 degrees C. in a CO2-free incubator with Seahorse assay media. […] Following measurement of the oxygen consumption rate (OCR) and extracellular acidification rate (ECAR) in response to serial injections of the stress test kit compounds, final cell density was determined using a CyQUANT assay (Thermo Fisher Scientific) to account for cell loss during washes. Cardiomyocytes not used for the Seahorse assay but at a similar day of differentiation were used to create a standard curve for the CyQUANT assay to quantify absolute cell number in order to account for cell loss during washing/mixing steps. OCR values were normalized to absolute cell number determined by the CyQUANT assay. […] Baseline OCR values were calculated by averaging the first three OCR measurements (0-12 minutes) prior to injection of compounds, maximal OCR values were calculated by subtracting the average non-mitochondrial OCR values (OCR following rotenone/[…]) from the OCR values after the injection with the uncoupler FCCP, and respiratory reserve capacity values were calculated by subtracting baseline OCR values from OCR values after addition of FCCP. For the Glycolysis Stress Test, the glycolysis ECAR was calculated by subtracting the average non-glycolytic acidification values (after 2-DG) from the values after glucose administration, the glycolytic capacity was calculated by subtracting the non-glycolytic acidification ECAR values from ECAR values after addition of oligomycin, and the glycolytic reserve was calculated by subtracting the ECAR values after addition of glucose from the ECAR values after addition of oligomycin, according to the manufacturer's instructions.

[2] = system: iPSC-derived cardiomyocytes; test: Voltage (FluoVolt) analysis with Vala Kinetic Image Cytometer; format: cell-based, human
Method: Following completion of Torin1 treatment, cardiomyocytes were dissociated as described above then replated at a density of 20,000-30,000 cells per well in a Geltrex-coated Greiner Cellstar black 96 well plate. FluoVolt dye (1:1000 from stock in the FluoVolt Membrane Potential Kit, Thermo) and Hoechst 33258 stain (20 μg/ml) in RPMI1640 (no phenol red) (supplemented with OxyFluor (Oxyrase, 1:100 dilution), 10 mM sodium lactate) were added to each well 15 minutes prior to assay. Cells were electrically stimulated with 15 V at a frequency of 0.5 pulses/sec and a pulse width of 5 msec for 5 pulses using the IC200 Kinetic Image Cytometer (Vala). Images were acquired at 20× and at a frame rate of 70 frames per second. Voltage analysis was performed using the CyteSeer image analysis software, which automatically recognizes Hoechst-stained nuclei, segments, and identifies each cell to quantify voltage data for each cell captured in the field of view (34). Cells were identified by Hoechst-stained nuclei, segmented into individual cells and automatically numbered by CyteSeer software (FIG. 4C). Within each cell, fluorescence intensity was recorded from within a circular region within each numbered, nucleated cell. […] Data from approximately 300-500 individual cells were included for analysis for each condition. Baseline fluorescence was used to normalize for variability in fluorescence intensity between individual cells. The peak rise time, CTD25 (25% duration of the calcium transient, or duration at 25% decline from maximum amplitude), CTD75 (75% duration of the calcium transient, or duration at 75% decline from maximum amplitude), T75-25 (time for voltage to decay from 75% to 25% of maximum), and downstroke velocity were quantified using the CyteSeer image analysis software.

CCC(=O)N1CCN(c2ccc(-n3c(=O)ccc4cnc5ccc(-c6cnc7ccccc7c6)cc5c43)cc2C(F)(F)F)CC1 [Torin1]
normalized maximal OCR ([1]; Torin1 200 nM 7 days, BJRiPS-CMs, FIG. 3B): significant increase | ECAR from non-glycolytic acidification ([1]; Torin1 200 nM 7 days, FIG. 12C): decrease in ECAR from non-glycolytic acidification | extracellular acidification rate (ECAR) ([1]; Torin1 200 nM 7 days, FIGS. 12A-12B): trend toward decreased | maximal OCR ([1]; Torin1 7 days, Gibco iPSC-derived cardiomyocytes): significantly increases the maximal OCR | action potential profile ([2]; FluoVolt, FIG. 4E): longer plateau phase and a sharper upstroke and downstroke | action potential peak rise time ([2]; UCSD-CMs, FIG. 4F): significant decrease | downstroke velocity ([2]; UCSD-CMs, FIG. 4G): significant increase | CTD25 ([2]; UCSD-CMs, FIG. 4H): no changes | CTD75 ([2]; UCSD-CMs, FIG. 4I): significant decrease | T75-25 time ([2]; UCSD-CMs, FIG. 4J): significant decrease
